Test results: patent US12617779B2, “Self degradation-type CDK9 inhibitor prodrug and liposome encapsulating same” (Sumitomo Pharma Co., Ltd., priority 2021, dated 2026)

Key:
[1] = Evaluation of conversion rate to active form in buffer solution (Experimental Example 1); type: physicochemical
How it was run: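 Conversion to Alvocidib and loss of parent were followed by HPLC over 3 h (samples at 0, 0.5, 1, 2, 3 h). Incubations used 25 umol/L compound at 37 °C across pH 5.0–7.4, in 50 mM citrate below pH 6.0 and 50 mM phosphate from pH 6.0 upward.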

[2] = Evaluation of conversion rate to active form in human plasma (Experimental Example 3); type: in vitro ADME; details: human, 0.2 μmol/L
Method: (§1) For Example 1, Example 2, Example 3, Example 4, Example 5, Example 6, Comparative Example 3, Comparative Example 4, Comparative Example 6, Comparative Example 7, Comparative Example 8, Comparative Example 9, Comparative Example 10 and Comparative Example 12, the attrition rate of the test compound and the conversion rate of the test compound to Alvocidib in human plasma and BALB/c mouse plasma were calculated by the following method.
(§2) The test compound was added to human plasma or BALB/c mouse plasma at a concentration of 0.2 μmol/L, and incubated at 37° C. The peak areas of the test compound and Alvocidib in the sample were determined by LC-MS/MS after 0, 30 and 60 minutes for Example 1, Example 2, Example 3, Example 4, Example 5 and Example 6, and after 0, 60 and 120 minutes for Comparative Example 3, Comparative Example 4, Comparative Example 6, Comparative Example 7, Comparative Example 8, Comparative Example 9, Comparative Example 10 and Comparative Example 12, and the attrition rate of the test compound and the conversion rate of the test compound to Alvocidib were calculated by the following formula. Attrition rate of test compound (%):(peak area of test compound in sample/peak area of test compound in sample after 0 minute)×100 Conversion rate to Alvocidib (%):(peak area of Alvocidib in sample/peak area of Alvocidib in reaction solution containing 0.2 μmol/L Alvocidib)×100
(§3) The measurement conditions for LC-MS/MS are as follows. • HPLC: Prominence system (Shimadzu Corporation) • MS/MS: • Example 1, Example 2, Example 3, Example 4, Example 5, Example 6, Comparative Example 8 (mouse), Comparative Example 10 (mouse) and Comparative Example 12 (mouse) • QTRAP5500 (SCIEX) • Comparative Example 6, Comparative Example 7, Comparative Example 8 (human), Comparative Example 9, Comparative Example 10 (human) and Comparative Example 12 (human) • 4000 QTRAP (SCIEX) • column: • other than Example 3 and Example 4 • Cadenza CD-C18, 3 μm, 50×2 mm (Imtakt Corporation) • Example 3 and Example 4 • Kinetex C8, 2.6 μm, 50×2.1 mm (Phenomenex) • column temperature: 40° C. • mobile phase: • A: water containing 0.1% formic acid • B: acetonitrile containing 0.1% formic acid • A/B (min): • Example 1, Example 2, Example 5, Example 6, Comparative Example 8 (mouse), Comparative Example 10 (mouse) and Comparative Example 12 (mouse) • 90/10(0)→40/60(5.0)→10/90(5.1)→10/90(6.5)→90/10(6.6)→90/10(8.0) • Example 3 and Example 4 • 86/14(0)→86/14(3.5)→10/90(5.5)→10/90(6.5)→86/14(6.6)→86/14(9.5) • Comparative Example 6, Comparative Example 7, Comparative Example 8 (human), Comparative Example 9, Comparative Example 10 (human) and Comparative Example 12 (human) • 90/10(0)→10/90(2.5)→10/90(3.5)→90/10(3.6)→90/10(5.0) • flow rate: 0.4 mL/min • detection: ESI (positive mode) • injection: 1 to 5 μL

[3] = Evaluation of conversion rate to active form in BALB/c mouse plasma (Experimental Example 3); type: in vitro ADME; details: BALB/c, mouse, 0.2 μmol/L
Method: as §1, §2, §3

CN1CC[C@H](c2c(O)cc(O)c3c(=O)cc(-c4ccccc4Cl)oc23)[C@H](OC(=O)CN)C1 [Comparative Example 8, reference compound]
Production rate of Alvocidib ([1]; pH5.0, 0 hr): 16.1%
Residual rate ([1]; pH5.0, 0 hr): 83.4%
Stability in buffer solution at pH 5 ([1]; pH 5, 37° C., up to 2 or 3 hours): unstable
Production rate of Alvocidib ([1]; pH5.0, 0.5 hr): 17.7%
Residual rate ([1]; pH5.0, 0.5 hr): 81.9%
Production rate of Alvocidib ([1]; pH5.0, 1 hr): 19.2%
Residual rate ([1]; pH5.0, 1 hr): 80.4%
Production rate of Alvocidib ([1]; pH5.0, 2 hr): 21.6%
Residual rate ([1]; pH5.0, 2 hr): 78.1%
Production rate of Alvocidib ([1]; pH5.0, 3 hr): 25.7%
Residual rate ([1]; pH5.0, 3 hr): 73.9%
Production rate of Alvocidib ([1]; pH5.5, 0 hr): 16.1%
Residual rate ([1]; pH5.5, 0 hr): 83.4%
Production rate of Alvocidib ([1]; pH5.5, 0.5 hr): 18.8%
Residual rate ([1]; pH5.5, 0.5 hr): 80.7%
Production rate of Alvocidib ([1]; pH5.5, 1 hr): 21.4%
Residual rate ([1]; pH5.5, 1 hr): 78.3%
Production rate of Alvocidib ([1]; pH5.5, 2 hr): 26.2%
Residual rate ([1]; pH5.5, 2 hr): 73.5%
Production rate of Alvocidib ([1]; pH5.5, 3 hr): 32.0%
Residual rate ([1]; pH5.5, 3 hr): 67.6%
Production rate of Alvocidib ([1]; pH6.0, 0 hr): 16.3%
Residual rate ([1]; pH6.0, 0 hr): 83.5%
Production rate of Alvocidib ([1]; pH6.0, 0.5 hr): 27.2%
Residual rate ([1]; pH6.0, 0.5 hr): 72.6%
Production rate of Alvocidib ([1]; pH6.0, 1 hr): 36.3%
Residual rate ([1]; pH6.0, 1 hr): 63.5%
Production rate of Alvocidib ([1]; pH6.0, 2 hr): 62.9%
Residual rate ([1]; pH6.0, 2 hr): 36.7%
Production rate of Alvocidib ([1]; pH6.0, 3 hr): 65.4%
Residual rate ([1]; pH6.0, 3 hr): 34.5%
Production rate of Alvocidib ([1]; pH6.5, 0 hr): 16.5%
Residual rate ([1]; pH6.5, 0 hr): 83.3%
Production rate of Alvocidib ([1]; pH6.5, 0.5 hr): 33.1%
Residual rate ([1]; pH6.5, 0.5 hr): 66.7%
Production rate of Alvocidib ([1]; pH6.5, 1 hr): 45.9%
Residual rate ([1]; pH6.5, 1 hr): 53.9%
Production rate of Alvocidib ([1]; pH6.5, 2 hr): 54.4%
Residual rate ([1]; pH6.5, 2 hr): 45.2%
Production rate of Alvocidib ([1]; pH6.5, 3 hr): 79.4%
Residual rate ([1]; pH6.5, 3 hr): 20.4%
Production rate of Alvocidib ([1]; pH7.0, 0 hr): 16.6%
Residual rate ([1]; pH7.0, 0 hr): 83.1%
Production rate of Alvocidib ([1]; pH7.0, 0.5 hr): 35.4%
Residual rate ([1]; pH7.0, 0.5 hr): 64.4%
Production rate of Alvocidib ([1]; pH7.0, 1 hr): 49.3%
Residual rate ([1]; pH7.0, 1 hr): 50.5%
Production rate of Alvocidib ([1]; pH7.0, 2 hr): 67.6%
Residual rate ([1]; pH7.0, 2 hr): 32.1%
Production rate of Alvocidib ([1]; pH7.0, 3 hr): 83.5%
Residual rate ([1]; pH7.0, 3 hr): 16.4%
Production rate of Alvocidib ([1]; pH7.4, 0 hr): 16.7%
Residual rate ([1]; pH7.4, 0 hr): 83.1%
Production rate of Alvocidib ([1]; pH7.4, 0.5 hr): 34.2%
Residual rate ([1]; pH7.4, 0.5 hr): 65.6%
Production rate of Alvocidib ([1]; pH7.4, 1 hr): 47.4%
Residual rate ([1]; pH7.4, 1 hr): 52.4%
Production rate of Alvocidib ([1]; pH7.4, 2 hr): 67.0%
Residual rate ([1]; pH7.4, 2 hr): 32.7%
Production rate of Alvocidib ([1]; pH7.4, 3 hr): 81.4%
Residual rate ([1]; pH7.4, 3 hr): 18.5%
Production rate (%) of Alvocidib ([2]; 0 min): 4%
Residual rate (%) of test compound ([2]; 0 min): 100%
Production rate (%) of Alvocidib ([2]; 60 min): 12%
Residual rate (%) of test compound ([2]; 60 min): 87%
Production rate (%) of Alvocidib ([2]; 120 min): 16%
Residual rate (%) of test compound ([2]; 120 min): 94%
Production rate (%) of Alvocidib ([3]; 0 min): 19%
Residual rate (%) of test compound ([3]; 0 min): 100%
Production rate (%) of Alvocidib ([3]; 60 min): 94%
Residual rate (%) of test compound ([3]; 60 min): 14%
Production rate (%) of Alvocidib ([3]; 120 min): 107%
Residual rate (%) of test compound ([3]; 120 min): 4%
